Laboratory results reported in patent US7943646B2, “Benzamidine derivative, process for the preparation thereof and pharmaceutical composition comprising same” (Dong Wha Pharmaceutical Co., Ltd., priority 2006, dated 2011).
Like-named read-outs stand apart in the source and are kept apart here.

What was measured:
[1] = tested on: osteoclast differentiation; assay: Inhibitory effect on osteoclast differentiation, co-culture of bone marrow cells and osteoblast, TRAP staining; type: cell-based, mouse; conditions: Mus musculus, Osteoclast, 168 h, read-out: inhibitory effect on osteoclast differentiation(%)
Outline: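 Mouse ddY bone marrow cells (25,000/cm^2) were co-cultured with neonatal ICR calvarial osteoblasts (10,000/cm^2) and compound for 7 days, with 10^−7 M dexamethasone and 10^−8 M vitamin D3, refreshed every 2–3 days. TRAP-positive cells with ≥3 nuclei were counted and expressed as % inhibition versus negative controls.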

[2] = tested on: ovariectomized white mouse; assay: Therapeutic effect in mouse model of osteoporosis induced by ovariectomy, trabecular bone volume of the femur by histomorphometry; type: in vivo; conditions: read-out: Changes in trabecular bone volume (% relative to vehicle control)
Procedure: The therapeutic effect of each benzamidine derivate of the present invention was evaluated on the ovariectomized white mouse. The substances of Examples 18, 19 and 72 were administered from 4 weeks after operation for 4 weeks and the substances of Examples 27, 33, 36, 47, 53 and 59 were administered from 3 days after operation for 29 days. Thereafter, the changes in the trabecular bone volume (TBV) of the femur were observed via histomorphometry.
Female ddY mice (6-week-old, SLC, Japan) were used after acclimatization for 7 days. Animals to be test were allocated 5 per a plastic cage for mice, and raised in a temperature (20 to 25[…]) and humidity (30 to 35%) controlled room. Feed and water were supplied free to access.
Salts of the benzamidine derivative of the present invention (methanesulfonic acid or HCl) were dissolved or suspended in sterilized, distilled water or 5% DMSO, and administered at a dose of 10 ml per body weight (kg) in the form of a solution. The substances of Examples 18, 19 and 72 were administered from 4 weeks after operation for 4 weeks, and the substances of Examples 27, 33, 36, 47, 53 and 59 were administered from 3 days after operation for 29 days each at 50 mg/kg/day.
After all animals anesthetize using ketamine hydrochloride and xylazine hydrochloride, bilateral ovaries were removed in order to induce estrogen-deficient osteoporosis. After ovariectomy, the […] were closed by routine methods.
The left femur was separated at a final sacrifice day, and fixed in 10% neutral formalin, then decalcified in a decalcifying solution (solution composed of 2.44% formic acid, and 0.5 N sodium hydroxide). The decalcifying solution was exchanges once a day for 5 days. After completion of the decalcification, the femur was embedded in paraffin, sectioned (3 to 4 μM), and stained with a hematoxylin-eosin stain. Observation was made using optical micrography.
The trabecular bone volume was calculated using automated image analysis (analysis Image Processing; SIS, Germany) in the femur using a femur histological specimen prepared in the above manner. The trabecular bone volume was calculated as percentage (%) levels.
All the numeral values were determined and compared to that of the vehicle control used in each experiment, using the calculation by the following Equation 1. Change(%)=[(trabecular bone volume of a−trabecular bone volume of b)/trabecular bone volume of b]×100 [Equation 1]
a: Experiment group, b: Vehicle group

[3] = tested on: MC3T3; assay: Cytotoxicity test (MTT), MC3T3; type: cell-based; conditions: 10^−6M, 72 hrs, in comparison with the control group
Procedure: (§1) The cytotoxic effect of the benzamidine derivative of the present invention was evaluated by carrying out the experiment described below.
(§2) The test substance was diluted in an appropriate solvent at a 10^−2 M concentration. This substance was diluted in an appropriate culture medium for the cells used in the cytotoxicity test to a concentration of […], and loaded into a 96-well plate in 100 μl per well. The cell lines to be used in the cytotoxicity test were plated on a 96-well plate in a dose of 1.0×10^4 cells/1OO μl per well and cultured for 72 hrs. 25 μl of MTT [3-(4,5-dimethyl-2-thiazolyl)-2,5-diphenyl-2H-tetrazolium bromide] dissolved in PBS (2 mg/mL) were added before 4 hrs of the end of culture. After completion of the reaction, the plates were centrifuged, the medium was discarded and 100 μl of DMSO was added to dissolve formazan. Finally, the absorbance of the developed plates was measured at 540 nm. The survival rates of the cells were expressed as % concentration values in comparison with the control group.

[4] = tested on: calvaria; assay: Cytotoxicity test (MTT), calvaria; type: cell-based; conditions: 10^−6M, 72 hrs, in comparison with the control group
Procedure: as §1, §2

[5] = tested on: HOS; assay: Cytotoxicity test (MTT), HOS; type: cell-based; conditions: 10^−6M, 72 hrs, in comparison with the control group
Procedure: as §1, §2

[6] = 1 μm, 7 days co-culture, TRAP-positive osteoclasts with 3 or more nuclei, relative to negative controls
[7] = 672 h, ovariectomized ddY mice, femur, 50 mg/kg/day, administered from 4 weeks after operation for 4 weeks
[8] = 696 h, ovariectomized ddY mice, femur, 50 mg/kg/day, administered from 3 days after operation for 29 days

Row | Compound | inhibition at 1 µM [1, 6] | change in vivo at 50 mg/kg/day [2, 8] | inhibition at 1 µM [1] | also measured
1 | CNC(=O)c1sc(N)nc1-c1ccc(OCCCCCOc2ccc(C(=N)NO)cc2)cc1 [Example 72, N-hydroxy-4-{5-[4-(2-amino-5-methylcarbamoyl-thiazol-4-yl)-phenoxy]-pentyloxy}-benzamidine] | 97.6% |  |  | change in vivo at 50 mg/kg/day [2, 7]: 95.6%
2 | N=C(NO)c1ccc(OCCCCCOc2ccc(-c3nc(N4CCOCC4)sc3CCN3CCOCC3)cc2)cc1 [Example 59, N-hydroxy-4-(5-{4-[2-morpholin-4-yl-5-(2-morpholin-4-yl-ethyl)-thiazol-4-yl]-phenoxy}-pentyloxy)-benzamidine] | 58% | 5.66% |  | 
3 | CN(C)c1nc(-c2ccc(OCCCCCOc3ccc(C(=N)NO)cc3)cc2)c(CCN2CCOCC2)s1 [Example 53, N-hydroxy-4-(5-{4-[2-dimethylamino-5-(2-morpholin-4-yl-ethyl)-thiazol-4-yl]-phenoxy}-pentyloxy)-benzamidine] | 99.3% | 25.6% |  | 
4 | Cc1nc(-c2ccc(OCCCCCOc3ccc(C(=N)NO)cc3)cc2)c(CCN2CCN(C)CC2)s1 [Example 19, N-hydroxy-4-[5-(4-{2-methyl-5-[2-(4-methyl-piperazin-1-yl)-ethyl]-thiazol-4-yl}-phenoxy)-pentyloxy]-benzamidine] | 100% |  |  | change in vivo at 50 mg/kg/day [2, 7]: 2.99%
5 | N=C(NO)c1ccc(OCCCCCOc2ccc(-c3nc(C4CCCCC4)sc3CCN3CCSCC3)cc2)cc1 [Example 36, N-hydroxy-4-(5-{4-[2-cyclohexyl-5-(2-thiomorpholin-4-yl-ethyl)-thiazol-4-yl]-phenoxy}-pentyloxy)-benzamidine] |  |  | 100% | survival rates of the cells [3]: 97.6%; survival rates of the cells [4]: 89.1%; survival rates of the cells [5]: 81.4%; change in vivo at 50 mg/kg/day ([2]; 696 h): 26.6%
6 | N=C(NO)c1ccc(OCCCCCOc2ccc(-c3nc(C4CCCCC4)sc3CCN3CCOCC3)cc2)cc1 [Example 33, N-hydroxy-4-(5-{4-[2-cyclohexyl-5-(2-morpholin-4-yl-ethyl)-thiazol-4-yl]-phenoxy}-pentyloxy)-benzamidine] |  |  | 92% | change in vivo at 50 mg/kg/day ([2]; 696 h): 26.3%
7 | CC(C)c1nc(-c2ccc(OCCCCCOc3ccc(C(=N)NO)cc3)cc2)c(CCN2CCOCC2)s1 [Example 27, N-hydroxy-4-(5-{4-[2-isopropyl-5-(2-morpholin-4-yl-ethyl)-thiazol-4-yl]-phenoxy}-pentyloxy)-benzamidine] | 81% | 23.6% |  | 
8 | CNc1nc(-c2ccc(OCCCCCOc3ccc(C(=N)NO)cc3)cc2)c(CCN2CCOCC2)s1 [Example 47, N-hydroxy-4-(5-{4-[2-methylamino-5-(2-morpholin-4-yl-ethyl)-thiazol-4-yl]-phenoxy}-pentyloxy)-benzamidine] | 89.6% | 5.77% |  | 
9 | Cc1nc(-c2ccc(OCCCCCOc3ccc(C(=N)NO)cc3)cc2)c(CCN2CCOCC2)s1 [Example 18, N-hydroxy-4-(5-{4-[2-methyl-5-(2-morpholin-4-yl-ethyl)-thiazol-4-yl]-phenoxy}-pentyloxy)-benzamidine] |  |  | 100% | survival rates of the cells [3]: 94.4%; survival rates of the cells [4]: 97.3%; survival rates of the cells [5]: 99.7%; change in vivo at 50 mg/kg/day ([2]; 672 h): 139%
